Measured values as given in publication PMC4051630, “A Comparison of Protein Kinases Inhibitor Screening Methods Using Both Enzymatic Activity and Binding Affinity Determination” (PLoS ONE, 2014).

Experiments:
Assay in all cases: Differential Scanning Fluorimetry (DSF) Tm shift
Format in all cases: binding
CHK2 Catalytic Domain = target: T1, CHK2 Catalytic Domain (Homo sapiens, UniProt O96017); settings: 2 µM protein, 10 µM inhibitor, average of 3 experiments, each in duplicate
T1 construct: For all of them, we expressed and purified the catalytic domain separately; His-tag; made in house; host or cells: Escherichia coli

FAK2 Catalytic Domain = target: T2, FAK2 Catalytic Domain (Homo sapiens, UniProt Q14289); settings: 2 µM protein, 10 µM inhibitor, average of 3 experiments, each in duplicate
T2 construct: For all of them, we expressed and purified the catalytic domain separately; His-tag; made in house; host or cells: Escherichia coli

AKT3 Catalytic Domain = target: T3, AKT3 Catalytic Domain (Homo sapiens, UniProt Q9Y243); settings: 2 µM protein, 10 µM inhibitor, average of 3 experiments, each in duplicate
T3 construct: AKT3 (Q9Y243); CD; His-tag; made in house; host or cells: Escherichia coli

FES Catalytic Domain = target: T4, FES Catalytic Domain (Homo sapiens, UniProt P07332); settings: 2 µM protein, 10 µM inhibitor, average of 3 experiments, each in duplicate
T4 construct: For all of them, we expressed and purified the catalytic domain separately; His-tag; made in house; host or cells: Escherichia coli

STK3 Catalytic Domain = target: T5, STK3 Catalytic Domain (Homo sapiens, UniProt Q13188); settings: 2 µM protein, 10 µM inhibitor, average of 3 experiments, each in duplicate
T5 construct: For all of them, we expressed and purified the catalytic domain separately; His-tag; made in house; host or cells: Escherichia coli
T5 sequence (Q13188 27-278 limits assumed): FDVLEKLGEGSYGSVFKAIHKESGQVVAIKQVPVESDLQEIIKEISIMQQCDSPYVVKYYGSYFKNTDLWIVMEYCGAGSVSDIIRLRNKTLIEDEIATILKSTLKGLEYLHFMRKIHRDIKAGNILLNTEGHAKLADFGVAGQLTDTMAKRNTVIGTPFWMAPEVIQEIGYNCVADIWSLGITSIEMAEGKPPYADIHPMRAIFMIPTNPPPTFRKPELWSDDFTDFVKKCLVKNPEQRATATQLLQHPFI

PAK4 Catalytic Domain = target: T6, PAK4 Catalytic Domain (Homo sapiens, UniProt O96013); settings: 2 µM protein, 10 µM inhibitor, average of 3 experiments, each in duplicate
T6 construct: For all of them, we expressed and purified the catalytic domain separately; His-tag; made in house; host or cells: Escherichia coli

DMPK Catalytic Domain = target: T7, DMPK Catalytic Domain (Homo sapiens, UniProt Q09013); settings: 2 µM protein, 10 µM inhibitor, average of 3 experiments, each in duplicate
T7 construct: For all of them, we expressed and purified the catalytic domain separately; His-tag; made in house; host or cells: Escherichia coli
T7 sequence (Q09013 71-339 limits assumed): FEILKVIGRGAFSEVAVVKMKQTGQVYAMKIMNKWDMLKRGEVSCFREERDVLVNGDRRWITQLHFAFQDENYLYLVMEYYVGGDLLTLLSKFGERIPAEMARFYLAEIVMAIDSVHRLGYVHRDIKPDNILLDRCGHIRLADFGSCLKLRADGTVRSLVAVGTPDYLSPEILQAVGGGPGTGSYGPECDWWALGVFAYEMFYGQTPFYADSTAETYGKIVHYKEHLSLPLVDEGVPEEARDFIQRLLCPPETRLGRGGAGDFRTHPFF

FES Catalytic Domain+SH2 = target: T8, FES Catalytic Domain+SH2 (Homo sapiens, UniProt P07332); settings: 2 µM protein, 10 µM inhibitor, average of 3 experiments, each in duplicate
T8 construct: for 8, we also made a longer version containing one or more additional domains; His-tag; made in house; host or cells: Escherichia coli

[1] = target: T9, PAK4 Catalytic Domain+PBD (Homo sapiens, UniProt O96013); settings: 2 µM protein, 10 µM inhibitor, average of 3 experiments, each in duplicate
T9 construct: for 8, we also made a longer version containing one or more additional domains; His-tag; made in house; host or cells: Escherichia coli

[2] = target: T10, STK3 Catalytic domain+SARAH (Homo sapiens, UniProt Q13188); settings: 2 µM protein, 10 µM inhibitor, average of 3 experiments, each in duplicate
T10 construct: for 8, we also made a longer version containing one or more additional domains; His-tag; made in house; host or cells: Escherichia coli
T10 sequence (Q13188 1-491): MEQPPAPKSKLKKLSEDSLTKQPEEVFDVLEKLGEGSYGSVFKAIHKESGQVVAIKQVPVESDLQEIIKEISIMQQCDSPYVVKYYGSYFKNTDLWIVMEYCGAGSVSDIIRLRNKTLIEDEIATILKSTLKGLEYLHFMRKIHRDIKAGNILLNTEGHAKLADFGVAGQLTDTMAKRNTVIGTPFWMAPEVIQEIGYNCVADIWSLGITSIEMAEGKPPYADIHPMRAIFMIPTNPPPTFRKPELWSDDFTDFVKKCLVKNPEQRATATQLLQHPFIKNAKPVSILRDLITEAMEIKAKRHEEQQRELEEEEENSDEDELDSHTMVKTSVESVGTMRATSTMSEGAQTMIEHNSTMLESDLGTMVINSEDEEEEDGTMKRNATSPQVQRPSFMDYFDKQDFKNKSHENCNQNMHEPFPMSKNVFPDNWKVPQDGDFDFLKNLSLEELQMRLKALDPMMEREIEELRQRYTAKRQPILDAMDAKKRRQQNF

[3] = target: SRC Catalytic Domain+SH2+SH3 (Homo sapiens, UniProt P12931); settings: 2 µM protein, 10 µM inhibitor, average of 3 experiments, each in duplicate
PAK7 Catalytic Domain = target: T11, PAK7 Catalytic Domain (Homo sapiens, UniProt Q9P286); settings: 2 µM protein, 10 µM inhibitor, average of 3 experiments, each in duplicate
T11 construct: For all of them, we expressed and purified the catalytic domain separately; His-tag; made in house; host or cells: Escherichia coli

CDK2 + Cyclin A = target: T12, CDK2 + Cyclin A (Homo sapiens, UniProt P24941); settings: CDK2 + Cyclin A; 2 µM protein, 10 µM inhibitor; average of 3 experiments, each in duplicate
T12 construct: CDK2 (P24941); 1–299; His-tag; made in house; host or cells: Escherichia coli

T9 sequence (O96013 whole entry, the tested form may be a part): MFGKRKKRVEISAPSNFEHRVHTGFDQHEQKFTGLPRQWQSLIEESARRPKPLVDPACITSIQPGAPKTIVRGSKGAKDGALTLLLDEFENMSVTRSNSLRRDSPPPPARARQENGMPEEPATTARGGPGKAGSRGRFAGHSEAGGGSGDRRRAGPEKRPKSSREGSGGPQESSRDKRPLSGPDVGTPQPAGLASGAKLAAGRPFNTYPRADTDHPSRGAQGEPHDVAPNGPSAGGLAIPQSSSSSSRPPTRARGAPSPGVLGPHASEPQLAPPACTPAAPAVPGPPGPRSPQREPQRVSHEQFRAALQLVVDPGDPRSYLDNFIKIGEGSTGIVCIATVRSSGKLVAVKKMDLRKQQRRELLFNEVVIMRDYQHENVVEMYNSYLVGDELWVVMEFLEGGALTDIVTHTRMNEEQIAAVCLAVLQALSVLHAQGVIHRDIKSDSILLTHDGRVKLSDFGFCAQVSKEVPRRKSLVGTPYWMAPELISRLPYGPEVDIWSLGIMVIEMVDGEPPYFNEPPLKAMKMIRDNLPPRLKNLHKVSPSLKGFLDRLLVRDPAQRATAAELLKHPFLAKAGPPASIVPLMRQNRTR
T1 sequence (O96017 220-486 limits assumed): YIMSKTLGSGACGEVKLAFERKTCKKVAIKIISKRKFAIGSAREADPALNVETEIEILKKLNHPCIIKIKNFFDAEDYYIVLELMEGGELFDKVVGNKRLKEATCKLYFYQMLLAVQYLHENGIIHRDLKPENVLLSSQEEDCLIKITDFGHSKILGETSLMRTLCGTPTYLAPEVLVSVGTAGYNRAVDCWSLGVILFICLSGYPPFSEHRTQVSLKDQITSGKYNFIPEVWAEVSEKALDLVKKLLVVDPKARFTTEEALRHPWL
T2 sequence (Q14289 425-683 limits assumed): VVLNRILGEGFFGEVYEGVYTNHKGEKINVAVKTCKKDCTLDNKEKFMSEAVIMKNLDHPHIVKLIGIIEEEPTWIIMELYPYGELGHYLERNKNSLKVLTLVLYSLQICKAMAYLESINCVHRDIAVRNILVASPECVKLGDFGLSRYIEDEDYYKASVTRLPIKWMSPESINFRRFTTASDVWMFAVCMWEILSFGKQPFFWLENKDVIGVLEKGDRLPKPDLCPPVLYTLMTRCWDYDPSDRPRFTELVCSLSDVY
Chain of SRC Catalytic Domain+SH2+SH3 (P12931 84-523 limits assumed): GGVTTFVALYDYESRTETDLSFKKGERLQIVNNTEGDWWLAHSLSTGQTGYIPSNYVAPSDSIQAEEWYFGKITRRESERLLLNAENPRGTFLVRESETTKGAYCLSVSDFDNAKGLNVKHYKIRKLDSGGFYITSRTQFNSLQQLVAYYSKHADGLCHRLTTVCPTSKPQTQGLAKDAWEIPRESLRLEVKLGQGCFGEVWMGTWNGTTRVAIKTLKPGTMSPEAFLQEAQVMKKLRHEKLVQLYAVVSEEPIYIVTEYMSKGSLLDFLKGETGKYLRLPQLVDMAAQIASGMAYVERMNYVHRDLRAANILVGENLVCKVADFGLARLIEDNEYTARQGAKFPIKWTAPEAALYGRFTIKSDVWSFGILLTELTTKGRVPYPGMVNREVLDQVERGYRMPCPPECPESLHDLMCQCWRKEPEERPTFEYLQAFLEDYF
T4 sequence (P07332 561-822 limits assumed): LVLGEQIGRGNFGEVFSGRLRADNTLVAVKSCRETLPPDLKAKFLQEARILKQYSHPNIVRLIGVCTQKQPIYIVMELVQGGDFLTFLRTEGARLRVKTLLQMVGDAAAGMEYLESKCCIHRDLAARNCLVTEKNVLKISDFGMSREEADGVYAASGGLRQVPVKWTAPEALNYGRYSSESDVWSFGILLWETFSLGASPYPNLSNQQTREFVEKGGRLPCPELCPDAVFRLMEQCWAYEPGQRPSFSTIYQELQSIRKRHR
T6 sequence (O96013 321-572 limits assumed): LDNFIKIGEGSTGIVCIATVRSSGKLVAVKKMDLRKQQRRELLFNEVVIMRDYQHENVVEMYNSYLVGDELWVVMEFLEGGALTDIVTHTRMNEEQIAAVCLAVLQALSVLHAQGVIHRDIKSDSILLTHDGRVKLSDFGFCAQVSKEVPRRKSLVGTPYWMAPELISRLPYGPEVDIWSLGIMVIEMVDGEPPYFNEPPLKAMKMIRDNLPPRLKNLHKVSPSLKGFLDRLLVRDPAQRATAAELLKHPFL
T3 sequence (Q9Y243 122-479): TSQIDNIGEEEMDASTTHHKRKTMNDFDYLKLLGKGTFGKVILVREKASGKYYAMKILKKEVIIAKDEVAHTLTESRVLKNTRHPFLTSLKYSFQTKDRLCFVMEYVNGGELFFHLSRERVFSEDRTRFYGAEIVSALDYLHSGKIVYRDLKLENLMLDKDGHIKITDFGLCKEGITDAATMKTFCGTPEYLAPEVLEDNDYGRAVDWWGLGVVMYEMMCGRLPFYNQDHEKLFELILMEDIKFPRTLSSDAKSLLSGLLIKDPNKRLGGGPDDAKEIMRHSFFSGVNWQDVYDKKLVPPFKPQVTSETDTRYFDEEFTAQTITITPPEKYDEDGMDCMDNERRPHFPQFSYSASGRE
T8 sequence (P07332 448-822 limits assumed): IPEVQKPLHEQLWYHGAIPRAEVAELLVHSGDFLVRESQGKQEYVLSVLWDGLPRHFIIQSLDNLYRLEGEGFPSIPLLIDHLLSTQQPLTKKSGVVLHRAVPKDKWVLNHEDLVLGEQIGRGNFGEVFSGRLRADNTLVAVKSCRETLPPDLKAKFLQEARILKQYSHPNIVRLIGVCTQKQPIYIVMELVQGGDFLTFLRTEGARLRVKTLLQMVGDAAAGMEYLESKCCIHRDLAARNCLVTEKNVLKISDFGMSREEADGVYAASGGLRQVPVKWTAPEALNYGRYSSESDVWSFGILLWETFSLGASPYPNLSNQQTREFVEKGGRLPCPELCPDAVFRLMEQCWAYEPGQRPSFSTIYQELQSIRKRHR
T11 sequence (Q9P286 449-700 limits assumed): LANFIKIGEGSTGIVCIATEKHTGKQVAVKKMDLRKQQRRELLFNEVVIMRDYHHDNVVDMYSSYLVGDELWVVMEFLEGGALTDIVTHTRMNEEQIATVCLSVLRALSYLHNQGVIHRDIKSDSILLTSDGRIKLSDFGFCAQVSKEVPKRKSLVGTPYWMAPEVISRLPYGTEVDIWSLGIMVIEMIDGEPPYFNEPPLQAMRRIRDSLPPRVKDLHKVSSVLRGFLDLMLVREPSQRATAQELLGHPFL

| Compound | Melting temperature (Tm) shift (CHK2 Catalytic Domain) | Melting temperature (Tm) shift (FAK2 Catalytic Domain) | Melting temperature (Tm) shift (AKT3 Catalytic Domain) | Melting temperature (Tm) shift (FES Catalytic Domain) | Melting temperature (Tm) shift (STK3 Catalytic Domain) | Melting temperature (Tm) shift (PAK4 Catalytic Domain) | Melting temperature (Tm) shift (DMPK Catalytic Domain) | Melting temperature (Tm) shift (FES Catalytic Domain+SH2) | Melting temperature (Tm) shift [1] | Melting temperature (Tm) shift [2] | Melting temperature (Tm) shift [3] | Melting temperature (Tm) shift (PAK7 Catalytic Domain) | Melting temperature (Tm) shift (CDK2 + Cyclin A) |
| --- | --- | --- | --- | --- | --- | --- | --- | --- | --- | --- | --- | --- | --- |
| Brc1c(Br)c(Br)c2n[nH]nc2c1Br [Casein Kinase II Inhibitor I] | 2.2 degrees Celcius | 0.1 degrees Celcius | 0.1 degrees Celcius | 0.0 degrees Celcius | 1.1 degrees Celcius | 0.2 degrees Celcius | 0.6 degrees Celcius | 0.8 degrees Celcius | 0.9 degrees Celcius | 0.4 degrees Celcius | 0.2 degrees Celcius |  |  |
| CC(=O)O/N=C1/C(=C2/C(=O)Nc3cc(Br)ccc32)Nc2ccccc21 [GSK-3 Inhibitor X] |  |  | 0.1 degrees Celcius | 0.4 degrees Celcius |  | 0.6 degrees Celcius | 0.5 degrees Celcius | 0.0 degrees Celcius | 1.0 degrees Celcius | 0.5 degrees Celcius |  | 0.1 degrees Celcius |  |
| O=C1C(Cl)=C(N2C(=O)CCC2=O)C(=O)c2ccccc21 [MEK Inhibitor II] | 0.0 degrees Celcius |  | 0.3 degrees Celcius | 0.0 degrees Celcius |  | 0.0 degrees Celcius |  | 0.0 degrees Celcius |  | 0.1 degrees Celcius | 0.0 degrees Celcius | 0.0 degrees Celcius | 0.1 degrees Celcius |
| CC#CC(=O)Nc1cc2c(Nc3ccc(F)c(Cl)c3)ncnc2cn1 [EGFR/ErbB-2/ErbB-4 Inhibitor] | 0.3 degrees Celcius |  | 0.0 degrees Celcius | 0.0 degrees Celcius | 0.2 degrees Celcius |  |  |  | 0.1 degrees Celcius |  | 0.0 degrees Celcius | 0.0 degrees Celcius |  |
| CN(C)c1nc2c(Br)c(Br)c(Br)c(Br)c2[nH]1 [Casein Kinase II Inhibitor II, DMAT] | 0.3 degrees Celcius | 3.2 degrees Celcius |  |  | 0.3 degrees Celcius | 0.2 degrees Celcius | 0.4 degrees Celcius |  | 0.3 degrees Celcius | 0.4 degrees Celcius | 0.9 degrees Celcius | 4.1 degrees Celcius | 0.5 degrees Celcius |
| O=C1NC(=O)/C(=C/c2ccc3nccnc3c2)S1 [PI 3-Kg Inhibitor] | 0.4 degrees Celcius |  | 0.0 degrees Celcius | 0.1 degrees Celcius | 0.1 degrees Celcius | 0.1 degrees Celcius | 0.8 degrees Celcius | 0.1 degrees Celcius |  | 0.1 degrees Celcius | 0.0 degrees Celcius | 0.0 degrees Celcius | 0.2 degrees Celcius |
| O=C1c2ccccc2-[n+]2ccc3c([nH]c4ccccc43)c21 [Fascaplysin, Synthetic, Fascaplysin] |  |  | 0.1 degrees Celcius | 0.2 degrees Celcius |  |  | 0.4 degrees Celcius | 0.0 degrees Celcius |  |  |  |  |  |
| CC[C@@H](CO)Nc1nc(NCc2ccccc2)c2ncn(C(C)C)c2n1 (single isomer, unassigned) [Roscovitine, (S)-Isomer] | 0.6 degrees Celcius | 0.2 degrees Celcius | 0.0 degrees Celcius | 1.2 degrees Celcius | 0.0 degrees Celcius | 1.4 degrees Celcius | 0.3 degrees Celcius | 0.9 degrees Celcius | 2.6 degrees Celcius | 0.0 degrees Celcius |  | 0.7 degrees Celcius |  |
| O.O=C1NCCc2[nH]c(-c3ccnc(-c4cnc5ccccc5c4)c3)cc21 [MK-2 Inhibitor III] | 1.2 degrees Celcius | 0.1 degrees Celcius | 0.0 degrees Celcius |  | 0.0 degrees Celcius | 0.0 degrees Celcius | 0.3 degrees Celcius |  | 0.1 degrees Celcius | 0.4 degrees Celcius | 0.1 degrees Celcius | 0.0 degrees Celcius | 0.1 degrees Celcius |
| O=C1NC(=O)c2c1c1c3ccccc3[nH]c1c1[nH]c3ccccc3c21 [Arcyriaflavin A, Synthetic, Arcyriaflavin A] |  |  | 0.0 degrees Celcius |  |  | 0.2 degrees Celcius |  |  | 0.5 degrees Celcius |  |  |  |  |
| O=C1Nc2ccc(I)cc2/C1=C1/Nc2ccccc2/C1=N\O [Indirubin-3ʹ′-monoxime, 5-Iodo-, Indirubin-3′ -monoxime, 5-Iodo-] |  |  |  |  | 1.2 degrees Celcius | 0.3 degrees Celcius |  |  | 2.3 degrees Celcius | 5.6 degrees Celcius |  |  |  |
| O=c1c2ccccc2[nH]c(=S)n1CCN1CCC(=C(c2ccc(F)cc2)c2ccc(F)cc2)CC1 [Diacylglycerol Kinase Inhibitor II] |  |  |  | 0.7 degrees Celcius |  |  |  |  | 0.2 degrees Celcius |  |  |  |  |
| Akt Inhibitor VIII, Isozyme-Selective, Akti-1/2 | 0.4 degrees Celcius | 0.1 degrees Celcius |  |  |  |  |  |  |  |  |  | 0.0 degrees Celcius | 0.2 degrees Celcius |
| COc1ccc2c(c1)c1c3c(c4c5ccccc5n(C)c4c1n2CC(O)CN(C)C)C(=O)NC3=O.Cl (stereo not shown) [Gö 7874, Hydrochloride] | 1.1 degrees Celcius | 0.7 degrees Celcius | 0.2 degrees Celcius | 0.3 degrees Celcius | 1.4 degrees Celcius |  | 0.2 degrees Celcius | 0.0 degrees Celcius | 0.1 degrees Celcius | 2.2 degrees Celcius |  | 0.1 degrees Celcius | 0.2 degrees Celcius |
